The target in assay [1] is T1, MIF (Homo sapiens, UniProt P14174).
T1 construct: His tag (C); made in house; host or cells: Escherichia coli BL21 (DE3), pET-20b(+)
T1 sequence (P14174 2-115 limits assumed): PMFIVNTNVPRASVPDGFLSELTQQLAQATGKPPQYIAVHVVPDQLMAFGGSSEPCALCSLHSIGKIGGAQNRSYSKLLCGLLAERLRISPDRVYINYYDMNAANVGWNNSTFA
The assay can be described thus: MIF tautomerase activity inhibition (4-HPP substrate, UV 306 nm). In kind it is biochemical. The protocol: 2. Preparation of recombinant MIF and MIF2.
The detailed procedure to produce C-terminal His-tagged recombinant human MIF was reported in our previous publications.[1,4,5] rhMIF was expressed through transforming a pET-20b(+) plasmid containing the target gene into Escherichia coli BL21 (DE3) according to literature procedures.[6] Overexpression was performed and cells were collected and sonicated.
The obtained supernatant was applied to a medium pressure chromatography system (Biologic Duoflow) equipped with a His trap HP (5 mL) column with detection at 280 nm for the eluent.
The column was washed with a binding buffer containing 50 mM Tris and 10% glycerol at pH 7.4 and eluted with elution buffer containing 500 mM imidazole, 50 mM Tris, 10% glycerol at pH 7.4. The pure fractions (as judged by SDS-PAGE) were pooled and subjected to a PD-10 column (GE healthcare) that was equilibrated with PBS buffer at pH 7.4 to remove the high concentration of imidazole. The collected MIF solution was divided into 50 µL aliquots and stored at –80 °C. Purity of obtained protein was tested by SDS-PAGE and Coomassie staining.
The concentration of protein was determined using the Bradford assay.
(§1) The detailed procedure to produce recombinant human MIF2 was reported in our previous publications.[7] Gene sequences of the human MIF2 gene (Invitrogen) was adapted to bacterial expression. After subcloning into a pET20b(+) expression vector, IPTG-induced expression was performed in E.coli strain BL21(DE3). MIF2 proteins were overproduced overnight and harvested cells were resuspended and sonicated. The soluble fraction was puriﬁed using a Q sepharose column (GE Healthcare) with a gradient of NaCl. The fractions containing MIF2 were brought to 1.7 M ammonium sulfate and loaded on a phenyl sepharose column (GE Healthcare) and eluted with a gradient to 0 M ammonium sulfate in a 20 mM sodium phosphate buffer, pH 8.0. Finally, the proteins were purified by size exclusion chromatography on a Superdex75 column (GE Healthcare) in 20 mM sodium phosphate buffer, pH 8.0, with an elution volume characteristic for trimeric MIF2. The collected protein was concentrated using a VivaSpin centrifugation column with a molecular weight cut off at 5000 D a (Sartorius Stedim Biotech GmbH). Purified proteins were aliquoted, snap frozen in liquid nitrogen, and stored at –80 °C. Purity of obtained protein was tested by SDS-PAGE and coomassie staining. The concentration of protein was determined using the Bradford a ssay.
(§2) 3.1 MIF and MIF2 Inhibition
(§3) The protocol for measuring inhibition of MIF or MIF2 tautomerase enzyme activity was described previously.[5] 500 nM MIF solution (180 µL) or 100 nM MIF2 solution (180 µL) in boric acid buffer ([…], pH 6.2) was mixed with 20 mM EDTA solution (10 µL) in demineralized water. A solution of the desired compound dissolved in DMSO (10 µL) or blank DMSO (10 µL) was added. The resulting mixture was preincubated at room temperature for 10 minutes.
(§4) Subsequently, 50 µL of this mixture was mixed with 50 µL of a 1 mM 4-HPP solution for MIF or 1 mM PP solution for MIF2 in ammonium acetate buffer (50 mM, pH 6.0). Thereafter, MIF or MIF2 tautomerase activity was monitored by measuring the increase of UV absorbance at 306 nm for MIF or 300 nm for MIF2 over time. The MIF or MIF2 tautomerase activity of the mixture with blank DMSO dilution was set to 100% enzyme activity. Noncatalyzed conversion of the substrate in the mixture without MIF or MIF2 was set to 0%. The data acquired from the first 3 minutes of the measurement were used to calculate the initial conversion speed. All experiments were performed in triplicate and data processing was done using the program […]
(§5) Table S1. IC50 values (10 min) and inactivation parameters of synthesized compounds.
(§6) (1 picture or pasted object on this page, not shown here)

Assay [2] addresses T2, MIF2 (Homo sapiens, UniProt P30046).
T2 construct: made in house; host or cells: E. coli BL21(DE3), pET20b(+)
Nature of the assay: MIF2 tautomerase activity inhibition (PP substrate, UV 300 nm). In kind it is biochemical. To be noted: for IC50: n=3, read-out: IC50 MIF2. As for the experimental part:
2. Preparation of recombinant MIF and MIF2. […]
Purity of obtained protein was tested by SDS-PAGE and Coomassie staining. […]
as §1, §2, §3, §4, §5, §6

Assay [3] has as its target T1, MIF. Nature of the assay: Labeling of recombinant MIF by probe 8, SDS-PAGE in-gel fluorescence, competition. To be noted: pre-treatment of MIF with competitor, Figure 2C, D. In kind it is binding. The protocol:
(§7) 4. Purified protein labeling and Mass spectra
(§8) 4.1 MIF or MIF2 labeling with probe 8
(§9) MIF or MIF2 were diluted to desired concentration with PBS buffer and incubated with probe
(§10) 8 at corresponding concentration and for corresponding time. Subsequently, the mixture was
(§11) denatured (99 °C, 10 min). Labeled protein and free probe were separated by 12% Bis-Tris gel
(§12) (Bio-Rad Laboratories, #4561084). Probe 8 labeled protein was visualized using in-gel
(§13) 4.2 MIF or MIF2 labeling and mass spectra
(§14) Figure S2. Mass spectra of labeled MIF2. (A) Native MIF2 and probe 8 (B) or probe 9 (C)
as §6

In assay [4] the target is T2, MIF2. Nature of the assay: Labeling of recombinant MIF2 by probe 8, SDS-PAGE in-gel fluorescence, competition. In kind it is binding. The settings on record: Figure 2G. The protocol: as §7, §8, §9, §10, §11, §12, §13, §14, §6
Assay [5] concerns the target T1, MIF. The assay can be described thus: Kitz-Wilson inactivation kinetics on MIF tautomerase. It is filed as biochemical. As for the experimental part:
(§15) In order to derive the kinetic parameters for inactivation of MIFand MIF2, we employed the approach described by Kitz and Wilson. Briefly, four different concentrations of the inhibitor with four different pre-incubation times were selected. The assay conditions are described above with the difference in incubation time.
(§16) For the data analysis, the pre-incubation times for the different concentration of the inhibitor versus the remaining enzyme activity were plotted, so from the linear regression the slope of each concentration of the probe was obtained ( Table S3). Then the 1/slope versus 1/[inhibitor] were plotted (Figure 4) and from the linear regression line ki was derived from the 1/y -intercept and derived from the slope times the ki as described by Kitz and Wilson.
For example, for the probe 8 the equation is: Y = 7,476*X + 5,069
So, the kinact and the KI values are: kinact =1/5,069 =0.20 min-1
(also on this page, place not known: -1 0 1 2 3 0 50 100 log [FM011] (µM) DDT (%) -1 0 1 2 3 0 50 100 log [ZP308] (µM) DDT activity (%) 0.0 0.5 1.0 1.5 2.0 0 50 100 log [ZP307] (µM) DDT activity (%) 1.4 1.6 1.8 2.0 2.2 0 50 100 log [FM031] (µM) DDT activity (%) pre -incubation cond itions pre -incubation activity o f (Table 1/y-intercept) […]
(§17) Table S4. Kinetics studies results.
(§18) Time-dependent inhibition Kitz and Wilson curve […]
ln (MIF tautomerase activity %)
Time-dependent inhibition on MIF Y = 7,476*X + 5,069
Time-dependent inhibition on MIF Y = 12,07*X + 4,234 […]
ln (MIF2 tautomerase activity %)
(§19) Time-dependent inhibition on MIF2 Y = 299,5*X + 11,14 […]

Assay [6] addresses T2, MIF2. Nature of the assay: Kitz-Wilson inactivation kinetics on MIF2 tautomerase. In kind it is biochemical. To be noted: Kitz-Wilson analysis, ±SD, n=3. As for the experimental part:
as §15, §16
For example, for the probe 8 the equation is: Y = 7,476*X + 5,069 […]
as §17, §18
ln (MIF tautomerase activity %) […]
as §19

The target in assay [7] is T1, MIF. The assay can be described thus: hgDNA cleavage by MIF in presence of tautomerase inhibitors. In kind it is biochemical. The settings on record: Figure S3/S7. The protocol:
(§20) 7. Nuclease activity of MIF and MIF2.
(§21) Human genomic DNA was obtained from RPE-1 cells by DNA extraction following the protocol described in literature.[10] The nuclease assays were conducted by following the procedure described previously.[8] hgDNA (200 ng/reaction) was incubated with MIF or MIF2 in final concentration of 0.62 -20 µM as indicated in 10Mm Tris-HCl buffer (pH 7.0) containing 10mM MgCl2 (B and C) or specific buffer as indicated at 37°C for two hours. The reaction was terminated with loading buffer containing 10mM EDTA and incubation on ice. The human genomic DNA samples were immediately separated on a 1% agarose gel containing SYBR Safe (ThermoFisher) in 0.5 X TBE buffer with initial switch time of 1.5 s and a final switch time of 3.5 s for 12 hours at 6 V/cm. DNA was further detected by chemiluminescence.
(§22) Figure S7. hgDNA cleavage activity of MIF and MIF2. (A) The MIF2 nuclease activity is Mg 2+- […]
(§23) BITC is a covalent inhibitor that can form covalent bond with the N-terminal proline.[11] (C) […]
as §6

For assay [8], the target named is T2, MIF2. The assay can be described thus: hgDNA cleavage by MIF2 in presence of tautomerase inhibitors. It is filed as biochemical. To be noted: Figure S3/S7. As for the experimental part:
as §20, §21, §22, §23, §6

Like-named read-outs stand apart in the source and are kept apart here.

In the case of `O=C(O)c1ccc(-c2cc(I)ncn2)cc1` [Compound 2], the IC50 (in general, the point on the concentration scale where inhibition reaches its midpoint) in assay [1] (Table 1, tautomerase activity, mean±SD, n=3, read-out: IC50 MIF) was 5 ± 0.46 µM; in assay [2] (Table 1, tautomerase activity, mean±SD), 125 ± 15 µM. In addition, the “potency relative to corresponding chloro-substituted intermediate” value in assay [1] (iodo compound vs chloro intermediate, Table S1) is “at least two times more potent”. In addition, in assay [3], the “labeling of MIF by probe 8 after prior treatment with inhibitor” value is listed as “abolished”. For the same compound, the “labeling of MIF2 by probe 8 after pre-incubation with inhibitor” value in assay [4] is “outcompeted”.
Turning to `O=C(NCCNc1ccc([N+](=O)[O-])c2nonc12)c1ccc(-c2cc(I)ncn2)cc1` [Compound 8], the half-inhibitory concentration (IC50) is 0.27 ± 0.085 µM in assay [1] (Table 2, 10 min pre-incubation, ±SD, n=3, read-out: IC50 MIF); around 0.2 µM in assay [1] (approximate, read-out: IC50 on MIF); 20 ± 2.2 µM in assay [2] (Table 2, 10 min pre-incubation, ±SD). Moreover, in assay [2], the “improvement of potency for MIF2 inhibition compared to parental inhibitor 2” value was 2–6 factor. Also, the “KI on MIF relative to IC50” value in assay [5] (KI higher than IC50) is “about 10 times”. Also, the KI (inactivation) came out at 1.5 ± 0.2 µM in assay [5] (Kitz-Wilson analysis, ±SD, n=3, read-out: KI MIF (inhibition constant)) and 26 ± 3.2 µM in assay [6] (read-out: KI MIF2 (inhibition constant)). In addition, the kinact (usually the rate constant of inactivation at saturating inhibitor) in assay [5] (Kitz-Wilson analysis, ±SD, n=3, read-out: kinact MIF (rate of enzyme inactivation) (converted)) was 0.00333 s⁻¹; in assay [6] (read-out: kinact MIF2 (rate of enzyme inactivation)), 0.001 to 0.0015 s⁻¹. Further, the “kinact MIF2 (rate of enzyme inactivation)” value in assay [6] was found to be 0.088 ± 0.012 min⁻¹. In addition, in assay [7], the “effect on DNA cleavage by MIF” value was “could not rescue DNA cleavage”. In addition, the “effect on DNA cleavage by MIF2” value in assay [8] is on record as “could not rescue DNA cleavage”.

The values are drawn from publication PMC9299485, “4‐Iodopyrimidine Labeling Reveals Nuclear Translocation and Nuclease Activity for Both MIF and MIF2” (Chemistry (Weinheim an Der Bergstrasse, Germany), 2021).
